Assay results as given in ChEMBL document CHEMBL1201862, “PubChem BioAssay data set” (2004).
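Assay format: 96-well plates, 48-hour exposure. GI50 is the concentration that inhibits growth by half.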 The source made the active and inactive calls. Cut-off read from the data, not from the text of the source: active = GI50 up to about 1.1 µM and inactive = higher.

Experiments:
Assay in all cases: growth of human tumour cells (NCI), 48 h
SK-MEL-5 = tested on: SK-MEL-5
SK-MEL-2 = tested on: SK-MEL-2
DMS-273 = tested on: DMS-273
HT-29 = tested on: HT-29
RPMI-8226 = tested on: RPMI-8226
HL-60 = tested on: HL-60
LXFL 529 = tested on: LXFL 529
DLD-1 = tested on: DLD-1
U-251 = tested on: U-251
LOX IMVI = tested on: LOX IMVI
SNB-19 = tested on: SNB-19
NCI-H460 = tested on: NCI-H460
IGROV-1 = tested on: IGROV-1
OVCAR-3 = tested on: OVCAR-3
A498 = tested on: A498
CCRF-CEM = tested on: CCRF-CEM
SK-OV-3 = tested on: SK-OV-3
OVCAR-5 = tested on: OVCAR-5
UACC-257 = tested on: UACC-257
KM12 = tested on: KM12

Measured: GI50

CCOc1ccc(/C(C=O)=C(\Cl)c2ccc(OC)c(OC)c2)cc1
inactive: SK-MEL-5 77.3 µM | SK-MEL-2 > 100 µM | DMS-273 > 100 µM | HT-29 > 100 µM | RPMI-8226 > 100 µM | HL-60 11.4 µM | LXFL 529 > 100 µM | DLD-1 > 100 µM | U-251 > 100 µM | LOX IMVI > 100 µM | SNB-19 > 100 µM | NCI-H460 > 100 µM | IGROV-1 > 100 µM | OVCAR-3 > 100 µM | A498 > 100 µM | CCRF-CEM > 100 µM | SK-OV-3 > 100 µM

O=C(O)C1CCCCN1c1ccccc1[N+](=O)[O-] (stereo not drawn)
inactive: SK-MEL-5 > 100 µM | SK-MEL-2 > 100 µM | OVCAR-5 > 100 µM | DMS-273 > 100 µM | HT-29 > 100 µM | UACC-257 > 100 µM | RPMI-8226 > 100 µM | HL-60 > 100 µM | LXFL 529 > 100 µM | DLD-1 > 100 µM | U-251 > 100 µM | LOX IMVI > 100 µM | SNB-19 > 100 µM | NCI-H460 > 100 µM | IGROV-1 > 100 µM | OVCAR-3 > 100 µM | CCRF-CEM > 100 µM | SK-OV-3 > 100 µM

CCC(C(=O)O)c1ccc(OC)cc1 (stereo not drawn)
inactive: SK-MEL-5 > 100 µM | SK-MEL-2 > 100 µM | OVCAR-5 > 100 µM | DMS-273 > 100 µM | HT-29 > 100 µM | UACC-257 > 100 µM | RPMI-8226 > 100 µM | HL-60 > 100 µM | LXFL 529 > 100 µM | DLD-1 > 100 µM | U-251 > 100 µM | LOX IMVI > 100 µM | KM12 > 100 µM | SNB-19 > 100 µM | NCI-H460 > 100 µM | IGROV-1 > 100 µM | OVCAR-3 > 100 µM | A498 > 100 µM | CCRF-CEM > 100 µM | SK-OV-3 > 100 µM

COc1ccc(C[C@H](N)C(=O)N2C[C@H](CO)C[C@H](n3ccc(=O)[nH]c3=O)C2)cc1
inactive: SK-MEL-5 > 100 µM | SK-MEL-2 > 100 µM | OVCAR-5 > 100 µM | DMS-273 > 100 µM | HT-29 > 100 µM | RPMI-8226 > 100 µM | HL-60 58.3 µM | LXFL 529 > 100 µM | DLD-1 > 100 µM | U-251 > 100 µM | LOX IMVI > 100 µM | KM12 > 100 µM | SNB-19 > 100 µM | NCI-H460 > 100 µM | IGROV-1 > 100 µM | OVCAR-3 > 100 µM | CCRF-CEM > 100 µM | SK-OV-3 > 100 µM
